Tests used:
serum TC and TG = assay: HFD-induced atherosclerosis, serum total cholesterol and triglyceride; type: in vivo, APOE−/− mice; parameters: Serum TC / Serum TG: unit not given here; conditions: for Serum TC / Serum TG: 8 weeks
Protocol: (§1) Experimental animals: C57BL and APOE^−/− mice, male, 8 weeks old, purchased from GemPharmatech LLC. Production license number: SCXK(Su)2023-0009. […] They were acclimated for 7 days before use in experiments.
(§2) Normal group (C57BL), model group (HFD/APOE^−/−), positive control drug VTX3232 (10 mg/kg) group, compound 103 (0.3, 1, 3, 10 and 30 mg/kg) group, with 6 mice per group. Oral administration was performed continuously for 8 weeks.
(§3) Allow blood to stand at room temperature for 2 hours, then centrifuge at 3000 rpm for 20 minutes. Aspirate the serum, aliquot it, and store at −70° C. for future use. After blood collection, euthanize mice by cervical dislocation. Open the abdominal cavity, remove heart and aorta. […] Store remaining tissues at −80° C. for future use.
(§4) Serum Total Cholesterol (TC) and Triglyceride (TG) Assay: For each sample, 10 μL of serum was used for […]. Samples were added sequentially strictly according to the kit instructions, incubated at 37° C., and measured for absorbance values using an enzyme-linked immunosorbent assay (ELISA) reader. The concentration levels of each indicator were calculated based on the standard curve.

[1] = system: inflammatory factors Il1b, Il6 and Hscrp in serum; assay: HFD-induced atherosclerosis, serum Il1b, Il6 and Hscrp; type: in vivo, APOE−/− mice; parameters: Serum Il1b / Serum Il6 / Serum Hscrp: unit not given here; conditions: for Serum Hscrp / Serum Il1b / Serum Il6: 8 weeks
Protocol: as §1, §2, §3
as §4, with “Il1, Il6” for “Cholesterol (TC)”, “Hscrp” for “Triglyceride (TG)”

CCR2 mRNA = assay: Inhibition of CCR2 mRNA level in MDSCs; type: cell-based; conditions: Mus musculus, 2 h, read-out: Suppression Rate (inhibition of CCR2 mRNA levels)
Protocol: Under sterile conditions, the tibia was removed, both ends of the bone were cut, and bone marrow was repeatedly flushed into a 15 mL centrifuge tube using a 1 mL syringe filled with culture medium. Centrifuge at 1600 rpm for 5 min to collect bone marrow cells. […] Count cells and adjust density to 1×10^6 cells/mL in complete medium. Seed cells uniformly into 6-well plates at 2 mL per well. […] After incubation, collect cells into centrifuge tubes, centrifuge at 1600 rpm for 5 min, wash once with 1×PBS, and add 500 μL RNA extraction reagent to each tube. After centrifugation to obtain the pellet, add 20 μL DEPC-treated water to each tube to dissolve the pellet. Determine RNA concentration and reverse transcribe to cDNA. Add the cDNA, primers, and […] to a 96-well plate. Centrifuge at 4000 rpm for 5 min, then place in a PCR instrument for detection.

[2] = molecular target: farnesyltransferase (FTase); conditions: cited from earlier work
rat arthritis = conditions: in vivo; cited from earlier work
[3] = system: IgE and inflammatory markers of AD mice; assay: MC903-induced atopic dermatitis, oral administration: serum IgE and ear mRNA of inflammatory markers; type: in vivo, mouse; parameters: scale not given here
Protocol: Except for the Normal group, all other groups underwent AD modeling: 20 μL of MC903 solution (also known as calcipotriol, purchased from Shanghai Yuanye Biotechnology Co., Ltd., used for inducing atopic models) was applied to each mouse's ears once daily for 14 consecutive days to induce the atopic dermatitis model. […] Measure ear thickness changes every 2 days using an electronic caliper before modeling and after treatment initiation.

[4] = Safety evaluation, mouse body weight (30 days oral); type: in vivo, C57BL/6 mice; parameters: Mouse body weight: unit not given here; conditions: for Mouse body weight: oral gavage once daily
Description: (§5) The Normal group received an equal volume of solvent (saline).

[5] = Safety evaluation, mouse activity status (30 days oral); type: in vivo, C57BL/6 mice; conditions: 500, 1000 mg/kg oral
Description: as §5

In the case of `CC1=C2CC[C@@](C)(OC(=O)N3CCCC3)[C@@H]2[C@H]2OC(=O)[C@@H](CN3CCCC3)[C@@H]2CC1` [Compound 103], the “Serum TC” value (serum TC and TG; 0.3 mg/kg, oral) is reported as 18.86 ± 1.44, the “Serum TG” value (serum TC and TG; 0.3 mg/kg, oral) is reported as 2.69 ± 0.86 and the “Serum TC” value (serum TC and TG; 1 mg/kg, oral) is reported as 18.71 ± 1.45. For the same compound, the “Serum TG” value (serum TC and TG; 1 mg/kg, oral) was 2.87 ± 0.42, the “Serum TC” value (serum TC and TG; 3 mg/kg, oral) was 17.44 ± 1.83 and the “Serum TG” value (serum TC and TG; 3 mg/kg, oral) was 2.56 ± 0.93. The “Serum TC” value (serum TC and TG; 10 mg/kg, oral) was 17.75 ± 1.62, the “Serum TG” value (serum TC and TG; 10 mg/kg, oral) was 3.01 ± 0.89 and the “Serum TC” value (serum TC and TG; 30 mg/kg oral) was 17.65 ± 1.35. The “Serum TG” value (serum TC and TG; 30 mg/kg oral) was 2.91 ± 0.59, the “serum TC and TG levels compared with the model group” value (serum TC and TG; 0.3, 1, 3, 10, 30 mg/kg oral) was “no significant changes” and the “Serum Hscrp” value ([1]; 0.3 mg/kg, oral) was 9.67 ± 1.25. The “Serum Il1b” value ([1]; 0.3 mg/kg, oral) was 277.35 ± 176.70, the “Serum Il6” value ([1]; 0.3 mg/kg, oral) was 95.42 ± 26.76 and the “Serum Hscrp” value ([1]; 1 mg/kg, oral) was 7.25 ± 0.77. The “Serum Il1b” value ([1]; 1 mg/kg, oral) was 255.38 ± 185.47, the “Serum Il6” value ([1]; 1 mg/kg, oral) was 90.32 ± 8.01 and the “Serum Hscrp” value ([1]; 3 mg/kg, oral) was 6.67 ± 0.46. The “Serum Il1b” value ([1]; 3 mg/kg, oral) was 173.42 ± 132.43, the “Serum Il6” value ([1]; 3 mg/kg, oral) was 82.19 ± 4.83 and the “Serum Hscrp” value ([1]; 10 mg/kg, oral) was 5.80 ± 0.41. The “Serum Il1b” value ([1]; 10 mg/kg, oral) was 77.91 ± 41.08, the “Serum Il6” value ([1]; 10 mg/kg, oral) was 50.08 ± 9.76 and the “Serum Hscrp” value ([1]; 30 mg/kg oral) was 4.88 ± 0.63. For the same compound, the “Serum Il1b” value ([1]; 30 mg/kg oral) was 62.93 ± 23.79, the “Serum Il6” value ([1]; 30 mg/kg oral) was 34.82 ± 20.80 and the “serum Il1b, Il6 and Hscrp levels compared with the model group” value ([1]; 0.3, 1, 3, 10, 30 mg/kg oral) was “markedly lower”.
In the case of `C=C1C(=O)O[C@@H]2[C@H]3C(C)=CC[C@@]34O[C@@]4(C)CC[C@@H]12` [Arg, Arglabin, reference compound], the inhibition at 1 µM (CCR2 mRNA) is given as 22.3%, the inhibition at 10 µM (CCR2 mRNA) is given as 69.7% and the “IC50 for inhibiting H-Ras protein farnesylation” value [2] is given as “only at the micromolar level”. The joint swelling (rat arthritis) was “significantly suppressed” and the “serum levels of TNF-α, IL-1β, and IL-6” value (rat arthritis) was “lowered”.
In the case of `CN(C)C[C@@H]1C(=O)O[C@H]2[C@H]1CC[C@@]1(C)C[C@]13CC[C@@](C)(O)[C@H]23` [Compound 20], the “I14 mRNA expression, ear” value ([3]; 0.1 mg/kg oral) is reported as 2.77 ± 0.16, the “I113 mRNA expression, ear” value ([3]; 0.1 mg/kg oral) is reported as 2.04 ± 0.20 and the “I131 mRNA expression, ear” value ([3]; 0.1 mg/kg oral) is reported as 2.64 ± 0.22. The “TSLP mRNA expression, ear” value ([3]; 0.1 mg/kg oral) was 3.38 ± 0.51, the “Tnf mRNA expression, ear” value ([3]; 0.1 mg/kg oral) was 4.04 ± 0.50 and the “I14 mRNA expression, ear” value ([3]; 1 mg/kg oral) was 2.65 ± 0.22. For the same compound, the “I113 mRNA expression, ear” value ([3]; 1 mg/kg oral) was 1.82 ± 0.21, the “TSLP mRNA expression, ear” value ([3]; 1 mg/kg oral) was 2.36 ± 0.32 and the “Tnf mRNA expression, ear” value ([3]; 1 mg/kg oral) was 2.63 ± 0.55. The “I14 mRNA expression, ear” value ([3]; 10 mg/kg oral) was 2.09 ± 0.26, the “I113 mRNA expression, ear” value ([3]; 10 mg/kg oral) was 1.66 ± 0.30 and the “I131 mRNA expression, ear” value ([3]; 10 mg/kg oral) was 1.68 ± 0.13. For the same compound, the “TSLP mRNA expression, ear” value ([3]; 10 mg/kg oral) was 1.33 ± 0.13, the “Tnf mRNA expression, ear” value ([3]; 10 mg/kg oral) was 1.22 ± 0.18 and the body weight ([4]; 500, 1000 mg/kg oral, 30 days, P>0.05) was “no significant effect”. It also gave a Mouse body weight ([4]; female, 500 mg/kg, day 1) of 100.00 ± 0.00, a Mouse body weight ([4]; female, 500 mg/kg, day 5) of 100.41 ± 0.43 and a Mouse body weight ([4]; female, 500 mg/kg, day 10) of 99.01 ± 1.34. The Mouse body weight ([4]; female, 500 mg/kg, day 15) was 100.03 ± 0.95, the Mouse body weight ([4]; female, 500 mg/kg, day 20) was 100.52 ± 0.74 and the Mouse body weight ([4]; female, 500 mg/kg, day 25) was 99.81 ± 1.72. For the same compound, the Mouse body weight ([4]; female, 500 mg/kg, day 30) was 99.79 ± 2.55, the Mouse body weight ([4]; female, 1000 mg/kg, day 1) was 100.00±0.00 and the Mouse body weight ([4]; female, 1000 mg/kg, day 5) was 101.96 ± 0.55. For the same compound, the Mouse body weight ([4]; female, 1000 mg/kg, day 10) was 101.80 ± 2.02, the Mouse body weight ([4]; female, 1000 mg/kg, day 15) was 99.77 ± 2.60 and the Mouse body weight ([4]; female, 1000 mg/kg, day 20) was 101.04 ± 2.13. It also gave a Mouse body weight ([4]; female, 1000 mg/kg, day 25) of 99.06 ± 3.56, a Mouse body weight ([4]; female, 1000 mg/kg, day 30) of 100.67 ± 0.91 and a Mouse body weight ([4]; male, 500 mg/kg, day 1) of 100.00 ± 0.00. It also gave a Mouse body weight ([4]; male, 500 mg/kg, day 5) of 100.31 ± 0.89, a Mouse body weight ([4]; male, 500 mg/kg, day 10) of 101.51 ± 4.00 and a Mouse body weight ([4]; male, 500 mg/kg, day 15) of 99.27 ± 2.11. The Mouse body weight ([4]; male, 500 mg/kg, day 20) was 101.29 ± 0.40, the Mouse body weight ([4]; male, 500 mg/kg, day 25) was 98.93 ± 0.60 and the Mouse body weight ([4]; male, 500 mg/kg, day 30) was 100.10 ± 1.08. The Mouse body weight ([4]; male, 1000 mg/kg, day 1) was 100.00 ± 0.00, the Mouse body weight ([4]; male, 1000 mg/kg, day 5) was 101.48 ± 1.30 and the Mouse body weight ([4]; male, 1000 mg/kg, day 10) was 101.22 ± 0.84. For the same compound, the Mouse body weight ([4]; male, 1000 mg/kg, day 15) was 100.47 ± 1.28, the Mouse body weight ([4]; male, 1000 mg/kg, day 20) was 100.15 ± 2.76 and the Mouse body weight ([4]; male, 1000 mg/kg, day 25) was 98.35 ± 1.14. The Mouse body weight ([4]; male, 1000 mg/kg, day 30) was 100.71 ± 0.53, the “activity status after each administration” value [5] was “relatively reduced activity and lethargy” and the “time to recovery to normal activity” value [5] was 1 to 2 h. For the same compound, the “coat luster, behavioral activity, or mental state vs. Normal group” value ([5]; 30 days) was “no significant differences”.
